Experimental data taken from patent publication US9603896B2, “Peptide compounds and methods of production and use thereof” (priority 2012, dated 2017).
Like-named read-outs stand apart in the source and are kept apart here. Ends that are not written are not given here.

Legend:
[1] = test system: Pseudomonas aeruginosa ATCC® 27853™; type: cell-based; details: 180 minutes
mouse cornea = experiment: In vivo model of corneal wound healing (corneal epithelial abrasion)
Method: The in vivo model of wound healing was carried out using a disposable biopsy punch (2 mm, Miltex, York, Pa.) to demarcate the mouse cornea and a 0.5 mm burr using the AlgerBrush II (The Alger Company, Inc., Lago Vista, Tex.) to remove the corneal epithelium. The corneal abrasions were treated at 0 and 16 hours with peptide 95-122 (10^−5 M), peptide 120-146WH (10^−6 M and 10^−8M), peptide 120-146WR ((10^−6 M and 10^−8M), or vehicle control (0.9% sodium chloride, pH 5.5, Baxter, Deerfield, Ill.). Corneal abrasions were visualized using sterile fluorescein sodium ophthalmic strips USP (Fluorets®, Chauvin Laboratory, Aubenas, France) dampened with sterile PBS. Images were taken at 0, 16, and 24 hours immediately following fluorescein staining.
Mice were anesthetized using ketamine (100 mg/kg; Bionichepharma, LLC., St. Lake Forrest, Ill.) and xylazine ([…]; Rompun; Bayer Corp., Shawnee Mission, Kans.), and the right cornea was wounded as follows. A disposable biopsy punch (2 mm, Miltex, York, Pa.) was used to demarcate the mouse cornea. The corneal epithelium was carefully removed within the 2 mm demarcated area with a 0.5 mm burr using the AlgerBrush II (The Alger Company, Inc., Lago Vista, Tex.). The corneal abrasions were treated at 0 and 16 hours with HB-EGF (250 ng/ml), rCAP37 (250 ng/ml), or vehicle control (0.9% sodium chloride, pH 5.5, Baxter, Deerfield, Ill.). Corneal abrasions were visualized using sterile fluorescein sodium ophthalmic strips USP (FLUORETS®, Chauvin Laboratory, Aubenas, France) dampened with sterile PBS. Images were taken at 0, 16, 24, and 48 hours immediately following fluorescein staining using a surgical microscope equipped with a camera (Carl Zeiss OPMI VISU 140, Carl Zeiss Surgical, Inc., Oberkochen, Germany). The areas of the open wound were quantitated using ImageJ software (US National Institutes of Health), and the results were reported as the percentage of wound closure.
Whole mouse eyes were collected for histology at 0, 6, 16, 24, and 48 hours post wounding and were immediately placed in Prefer fixative (Anatech LTD., Battle Creek, Mich.) for 20 minutes before being transferred to 70% ethanol. Tissues were paraffin-embedded and cut at a thickness of 5 μm, mounted on SUPERFROSTPLUS® slides (Statlab Medical Products, Lewisville, Tex.), and subsequently deparaffinized, rehydrated, and washed in deionized water. Sections were stained with hematoxylin (Leica Microsystems, Buffalo Grove, Ill.) and rinsed twice in deionized water before being washed in Blue Buffer (Leica Microsystems). The sections were finally washed in deionized water and 95% ethanol prior to being counterstained with eosin (Leica Microsystems). Sections were dehydrated in ethanol and cleared in xylene.

Row | Sequence | bactericidal activity against Pseudomonas aeruginosa ([1]; pH 5.5, peptides up to 25 μM) | bactericidal activity against Pseudomonas aeruginosa ([1]; pH 7.2, peptides at 25 μM) | corneal wound healing (wound closure at 16 and 24 hours) vs vehicle (mouse cornea; 10^−5 M at 0 and 16 hours) | reduction of CFU (FIG. 14) ([1]; pH 5.5, highest concentrations (150 μg/ml)) | reduction of CFU/ml ([1]; pH 7.2, highest concentrations of peptides (25 μM)) | amount of corneal wound healing vs vehicle-treated (mouse cornea; 10^−8M or 10^−6M at 0 and 16 hours, closure at 16 and 24 hours)
1 | LDREANLTSSVTILPLPLQNATVEAGTR (listed as Homo sapiens) [Peptide 95-122] | not active | not active | promotes corneal wound healing |  |  | 
2 | GTRCQVAGWGSWHSGGRLSRFPRFVNV [Peptide 120-146WH] |  | as effective as the standard antibiotic gentamicin |  | 6 logs | 6 logs | significantly greater
